Key:
[1] = system: Calcium; assay: Calcium antagonism (pKCa^−1, Table 2)
[2] = biological target: T1, β-adrenoreceptor (β1) (Rattus norvegicus, UniProt P18090); assay: Isolated right atrium, L-isoproterenol-induced heart rate increase (pA2); set-up: species or system Wistar rat; conditions: for β1/β2: from pA2 difference right atrium vs tracheal; for β1 Right Atrium (Slope): slope of Schild regression; for β1 Value of pA2 Right Atrium: vs L-isoproterenol, Schild plot
T1 construct: The right and left atria were then separated; from tissue; host or cells: isolated rat right atrium (spontaneously beating) and left atrium (electrically paced)
T1 sequence (P18090 whole entry): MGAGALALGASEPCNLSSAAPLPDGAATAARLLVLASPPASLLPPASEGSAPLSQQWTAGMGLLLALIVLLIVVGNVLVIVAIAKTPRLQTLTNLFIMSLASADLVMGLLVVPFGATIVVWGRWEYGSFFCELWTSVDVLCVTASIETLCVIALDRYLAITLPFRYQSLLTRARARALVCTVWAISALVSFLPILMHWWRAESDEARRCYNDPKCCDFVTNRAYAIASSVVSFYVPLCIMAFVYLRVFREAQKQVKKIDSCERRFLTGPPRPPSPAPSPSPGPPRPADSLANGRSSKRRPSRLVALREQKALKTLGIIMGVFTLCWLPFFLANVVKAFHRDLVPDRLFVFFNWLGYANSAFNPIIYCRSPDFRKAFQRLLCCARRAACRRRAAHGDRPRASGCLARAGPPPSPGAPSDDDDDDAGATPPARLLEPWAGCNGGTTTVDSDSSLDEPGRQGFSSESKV
Description: The right and left atria were then separated. The spontaneously-beating right atria was clipped on both end by heart shaped clips, where one end was fixed at the bottom of 10 ml of tissue bath made of physiological saline solution, and temperature maintained at 37° C. The other end of the atria was connected to a force transducer, and isometric contractions and beating rate of the right atria were recorded by COULBOURN AT-High-Speed VideoFigure. After the samples were given 250 mg of contractions and reach equilibrium the following experiments were carried out: • (a) β-adrenoceptor blocking action
Cumulative administration interval was when the previous concentration reached its greatest effect, the next concentration would be immediately given.
The equation is as follows: pA2=−Log KB Log(DRADJ−1)=nlog[B]−LogKB [formula]
[B] Test compound concentration in moles • KB: equilibrium dissociation constant • n: value of slope DR: test EC50 divided by control EC50 • CF: EC50 of second or third control groups divided by EC50 of first control group (c) Effect of Compound on the Increase of Spontaneous Beating in Right Atrium Caused by CaCl2

[3] = system: thoracic aorta; assay: Isolated thoracic aorta contraction caused by 75 mM KCl; set-up: species or system Wistar rat; conditions: 10^−8M; 75 mM KCl contraction
Description: After sacrificing Wistar rat of weight between 300-500 gm, the thoracic aorta was immediately removed and placed in cold Kreb's solution. The fatty connecting tissue surrounding the vessel wall was removed and the thoracic aorta was cut into rings of length 5 mm. The two ends of each ring was pieced and fixed with “Z” shaped platinum wires. […] The sample was given 1 gm of tension and equilibrated for 60 minutes before the following experiments were carried out:
After thoracic aorta had reached equilibrium in the tissue trough, the normal Kreb's solution in the trough was replaced with 75 mM KCl solution to induce vasoconstriction. When the results had been recorded for at least 35 minutes, the aorta was repeatedly rinsed with normal Kreb's solution. After the aorta had re-equilibrated and at least rested for 60 minutes, different concentrations (10^−8, 10^−7, 10^−6, and 10^−5M) of compound 1 were separately added. 30 minutes later, 75 mM KCl was added again to induce vasoconstriction. This method was used to compare the differences in contraction induced by 75 mM KCl on thoracic aorta pre-treated and non-treated with compound 1.
0.1 μM of BayK8644 was first added into the tissue trough. 10 minutes later, 75 mM of concentrated Potassium solution was added to induce thoracic aorta contraction. When vasoconstriction had reached stability, different concentrations of (10^−8, 10^−7, 10^−6, and 10^−5M) compound 1 were separately added. The effects of aorta contraction induced by concentrated Potassium solution were observed.

[4] = biological target: T2, β2 (Cavia porcellus, UniProt Q8K4Z4); assay: Guinea pig's isolated tracheal, L-isoproterenol relaxation of carbachol contraction (pA2); conditions: for β2 Tracheal (slope): slope of Schild regression; for β2 Value of pA2 Tracheal: vs L-isoproterenol, carbachol 10^−6 M contraction
T2 construct: a portion of tracheal approximately 4 cm long was removed; from tissue; host or cells: isolated trachea of reserpine-pretreated guinea pigs
T2 sequence (Q8K4Z4 whole entry): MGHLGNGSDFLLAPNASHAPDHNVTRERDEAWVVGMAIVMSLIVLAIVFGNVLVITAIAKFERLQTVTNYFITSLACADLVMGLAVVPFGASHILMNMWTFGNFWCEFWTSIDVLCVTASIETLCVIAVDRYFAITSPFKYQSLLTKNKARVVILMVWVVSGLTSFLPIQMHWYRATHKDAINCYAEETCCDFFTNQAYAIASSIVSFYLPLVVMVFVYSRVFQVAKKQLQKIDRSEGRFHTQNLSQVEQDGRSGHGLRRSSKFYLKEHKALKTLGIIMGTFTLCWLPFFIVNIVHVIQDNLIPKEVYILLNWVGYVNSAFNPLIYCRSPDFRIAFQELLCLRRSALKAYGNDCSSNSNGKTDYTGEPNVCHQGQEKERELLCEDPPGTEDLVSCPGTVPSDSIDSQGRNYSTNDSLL
Description: Guinea pigs of weight between 300˜500 gm were used. […] After the guinea pigs were sacrificed, a slit was made along the neck, and a portion of tracheal approximately 4 cm long was removed. […] The two ends of the tracheal were clamped with frog-heart shaped clamps, one end was fixed at the bottom of tissue bath filled with 20 ml of Kreb's solution, maintained at 37° C., while the other end was connected to a force transducer. Through a COULBOURN AT-High-Speed Videograph, long isometric contractions were recorded. After the sample was given 1.5 gm of tension and equilibrated, the following experiments were performed:
Then the tracheal was repeatedly washed with Kreb's solution for 20 minutes and 10−6 M of carbochol was added to cause contraction in the guinea pig's tracheal. […] This is the test group.
(b) Calculation of pA2: similar to the calculation method for isolated right atrium experiment.

[5] = Heart rate and blood pressure in living rat; type: in vivo, Wistar rats; conditions: 1 mg/kg via femoral vein, anaesthetized rat
Source text: Male Wistar rats, weighing 200˜300 g were abdominal anaesthetized with pentobarbital sodium. Tracheal was cannulated to maintain normal respiration. Polyethylene tube was inserted into the left femoral vein to facilitate drug administration. A 3-way stopcock was used, with one end connected to a syringe for drug injection, while the other end was connected to the syringe filled with physiological saline. The latter was used to prevent residual drugs in the polyethylene tube after injection, which would affect experimental accuracy.
The right femoral artery was also inserted with polyethylene, and a 3-way stopcock was used too, where one end was connected to heparin solution to prevent embolism. The other end was connected to a Disposable Diaphragm Dome, TA1019, and linked to a transducer. Through an amplifier, a recorder recorded the overall and average arterial pressure; heart rate to evaluate the effect of drug on blood pressure and heart rate.

[6] = biological target: T1, β-adrenoreceptor (β1); assay: Isolated left atrium, L-isoproterenol-induced contractility increase (pA2); set-up: species or system Wistar rat; conditions: for β1 Left Atrium (Slope): slope of Schild regression; for β1 Value of pA2 Left Atrium: vs L-isoproterenol, electrically stimulated
Description: The inspontaneously-beating left atrial tissue was obtained from rat's isolated right atrial tissue experiments. […] The contraction rate was 1 Hz and the resting tension 0.5 gm. After 60 minutes of equilibration, the following experiments were performed:
(a) Completion of cumulative concentration-response curve: similar to experimental method on isolated right atrium;
(b) Calculation of pA2 value: similar to calculation method on isolated right atrium.

Compound | Calcium Antagonism PKCa^−1 [1] | Ratio of β1 and Calcium Antagonism [2] | β1/β2 [2] | β1 Right Atrium (Slope) [2] | β1 Value of pA2 Right Atrium [2] | Aorta Relaxation [3] [%] | β2 Tracheal (slope) [4] | β2 Value of pA2 Tracheal [4] | Lowering of Blood Pressure [5] [mmHg] | Reduction of Heart Rate [5] [beats/min] | β1 Left Atrium (Slope) [6] | β1 Value of pA2 Left Atrium [6]
COC(=O)C1=C(C)NC(C)=C(C(=O)OC)C1c1ccc(OCC(O)CNCCOc2ccccc2OC)c(OC)c1 (stereo not drawn) [Compound 2, 4-{{N-{4-[2-hydroxy-3-(2-methoxy-1-oxyethyl-aminobenzene)propoxy]-3-methoxy}phenyl}}-2,6-dimethyl-3,5-dicarbo-methoxy-1,4-dihydropyridine] | 7.91 ± 0.35 | 0.09 | 1.28 | (0.88 ± 0.09) | 7.36 ± 0.65 | 40 ± 4 | (0.88 ± 0.12) | 7.20 ± 0.45 | 75 ± 2 | 35 ± 4 | (0.91 ± 0.21) | 6.93 ± 0.34
CCOC(=O)C1=C(C)NC(C)=C(C(=O)OCC)C1c1ccc(OCC(O)CNCCOc2ccccc2OC)c(OC)c1 (stereo not drawn) [Compound 3, 4-{{N-{4-[2-hydroxy-3-(2-methoxy-1-oxyethyl-aminobenzene)propoxy]-3-methoxy)phenyl}}-2,6-dimethyl-3,5-dicarboethoxy-1,4-dihydropyridine] | 7.96 ± 0.27 | 0.08 | 1.26 | (0.92 ± 0.27) | 7.47 ± 0.38 | 41 ± 2 | (0.92 ± 0.23) | 7.31 ± 0.23 | 78 ± 5 | 37 ± 5 | (0.89 ± 0.03) | 6.97 ± 0.12
CCOC(=O)C1=C(C)NC(C)=C(C(=O)OCC)C1c1cc(Cl)ccc1OCC(O)CNC(C)(C)C (stereo not drawn) [Compound 4] | 7.94 ± 0.56 | 0.08 | 1.31 | (0.83 ± 0.12) | 7.38 ± 0.12 | 35 ± 5 | (0.87 ± 0.18) | 7.27 ± 0.32 | 76 ± 6 | 33 ± 3 | (0.92 ± 0.12) | 6.90 ± 0.35
CCCCNCC(O)COc1ccc(Cl)cc1C1C(C(=O)OCC)=C(C)NC(C)=C1C(=O)OCC (stereo not drawn) [Compound 5] | 7.89 ± 0.34 | 0.10 | 1.33 | (0.91 ± 0.23) | 7.37 ± 0.27 | 33 ± 2 | (0.91 ± 0.21) | 7.24 ± 0.12 | 74 ± 4 | 32 ± 4 | (0.93 ± 0.19) | 6.91 ± 0.09

Source: patent US20050009886A1, “1,4-Dihydropyridine derivative with a guaiacoxypropanolamine and/or phenoxypropanolamine moiety” (priority 1998, published 2005)
